Test results taken from the NIST ThermoML archive (doi:10.1021/je060271a).
Values joined by “and” are separate entries in the source; they are usually repeats but may differ in a detail not shown here. Equal entries are not always repeated. ± gives the expanded uncertainty stated by the source.

Details: 323.15 K, Liquid, Vibrating tube method

CCCCCC(=O)OCC(COC(=O)CCCCC)(COC(=O)CCCCC)COC(=O)CCCCC [pentaerythritol tetrahexanoate]
Details | mass density
4356.6 kPa | 975.7 ± 1.2 kg/m3
4377.1 kPa | 975.8 ± 1.2 kg/m3
4397.7 kPa | 975.8 ± 1.2 kg/m3
4414.6 kPa | 975.8 ± 1.2 kg/m3
4431.8 kPa | 975.7 ± 1.2 kg/m3
4453.1 kPa | 975.7 ± 1.2 kg/m3
4474 kPa | 975.7 ± 1.2 kg/m3
4491.8 kPa | 975.8 ± 1.2 kg/m3
4509.3 kPa | 975.7 ± 1.2 kg/m3
6215.6 kPa | 977 ± 1.2 kg/m3
6237.7 kPa | 977 ± 1.2 kg/m3
6256.2 kPa | 977.1 ± 1.2 kg/m3
6278.3 kPa | 977.1 ± 1.2 kg/m3
6297 kPa | 977 ± 1.2 kg/m3
6319.4 kPa | 977.2 ± 1.2 kg/m3
6338.8 kPa | 977.1 ± 1.2 kg/m3
6508.8 kPa | 977.2 ± 1.2 kg/m3
6532.7 kPa | 977.2 ± 1.2 kg/m3
6552.5 kPa | 977.2 ± 1.2 kg/m3
7405.8 kPa | 977.7 ± 1.2 kg/m3
7431 kPa | 977.8 ± 1.2 kg/m3
7486 kPa | 977.8 ± 1.2 kg/m3
7516.4 kPa | 978 ± 1.2 kg/m3
7547.5 kPa | 977.8 ± 1.2 kg/m3
7600 kPa | 978 ± 1.2 kg/m3
7657.3 kPa | 978 ± 1.2 kg/m3
7688 kPa | 978 ± 1.2 kg/m3
7711.5 kPa | 978.1 ± 1.2 kg/m3
7734.2 kPa | 978.1 ± 1.2 kg/m3
7761.5 kPa | 978 ± 1.2 kg/m3
7886.8 kPa | 978.1 ± 1.2 kg/m3
7915.3 kPa | 978.1 ± 1.2 kg/m3
7938.6 kPa | 978.2 ± 1.2 kg/m3
7966.7 kPa | 978.2 ± 1.2 kg/m3
7990.5 kPa | 978.2 ± 1.2 kg/m3
8019.5 kPa | 978.3 ± 1.2 kg/m3
8044.2 kPa | 978.3 ± 1.2 kg/m3
8073.3 kPa | 978.1 ± 1.2 kg/m3
8098.3 kPa | 978.3 ± 1.2 kg/m3
8128.9 kPa | 978.3 ± 1.2 kg/m3
8158.2 kPa | 978.5 ± 1.2 kg/m3
8182.5 kPa | 978.3 ± 1.2 kg/m3
8207.5 kPa | 978.3 ± 1.2 kg/m3
9038.7 kPa | 978.9 ± 1.2 kg/m3
9060.6 kPa | 979.1 ± 1.2 kg/m3
9078.3 kPa | 978.9 ± 1.2 kg/m3
9100 kPa | 978.9 ± 1.2 kg/m3
9123 kPa | 978.9 ± 1.2 kg/m3
9245.2 kPa | 979 ± 1.2 kg/m3
9267 kPa | 979 ± 1.2 kg/m3
9289.4 kPa | 979.1 ± 1.2 kg/m3
9308.6 kPa | 979.1 ± 1.2 kg/m3
9331.8 kPa | 979.1 ± 1.2 kg/m3
9354.9 kPa | 979 ± 1.2 kg/m3
9374.6 kPa | 979.1 ± 1.2 kg/m3
9395.3 kPa | 979.1 ± 1.2 kg/m3
9417.9 kPa | 979.2 ± 1.2 kg/m3
9435.5 kPa | 979.1 ± 1.2 kg/m3
9456.1 kPa | 979.2 ± 1.2 kg/m3
9473 kPa | 979.2 ± 1.2 kg/m3
9493.7 kPa | 979.2 ± 1.2 kg/m3
9510.8 kPa | 979.3 ± 1.2 kg/m3
9531.3 kPa | 979.2 ± 1.2 kg/m3
9552.1 kPa | 979.3 ± 1.2 kg/m3
9569.5 kPa | 979.3 ± 1.2 kg/m3
9590.4 kPa | 979.3 ± 1.2 kg/m3
9603.6 kPa | 979.4 ± 1.2 kg/m3
9617.2 kPa | 979.3 ± 1.2 kg/m3
9629.1 kPa | 979.4 ± 1.2 kg/m3
9642.9 kPa | 979.3 ± 1.2 kg/m3
9655.3 kPa | 979.4 ± 1.2 kg/m3
9669.9 kPa | 979.3 ± 1.2 kg/m3
9681.3 kPa | 979.5 ± 1.2 kg/m3
9694.7 kPa | 979.3 ± 1.2 kg/m3
9706.3 kPa | 979.4 ± 1.2 kg/m3
9735.4 kPa | 979.4 ± 1.2 kg/m3
9747.4 kPa | 979.4 ± 1.2 kg/m3
9762.1 kPa | 979.4 ± 1.2 kg/m3
9776.4 kPa | 979.4 ± 1.2 kg/m3
9788.2 kPa | 979.5 ± 1.2 kg/m3
9798.4 kPa | 979.4 ± 1.2 kg/m3
9804.9 kPa | 979.4 ± 1.2 kg/m3
9900.4 kPa | 979.4 ± 1.2 kg/m3
9910.4 kPa | 979.4 ± 1.2 kg/m3
9915.9 kPa | 979.4 ± 1.2 kg/m3
9925.7 kPa | 979.6 ± 1.2 kg/m3
9936.9 kPa | 979.5 ± 1.2 kg/m3
9949.3 kPa | 979.5 ± 1.2 kg/m3
9960.5 kPa | 979.5 ± 1.2 kg/m3
9987.7 kPa | 979.6 ± 1.2 kg/m3
9992.5 kPa | 979.5 ± 1.2 kg/m3
10032 kPa | 979.7 ± 1.2 kg/m3
10036 kPa | 979.6 ± 1.2 kg/m3 and 979.7 ± 1.2 kg/m3
10106 kPa | 979.7 ± 1.2 kg/m3
10118 kPa | 979.7 ± 1.2 kg/m3
10128 kPa | 979.6 ± 1.2 kg/m3
10139 kPa | 979.6 ± 1.2 kg/m3
10152 kPa | 979.6 ± 1.2 kg/m3
10164 kPa | 979.7 ± 1.2 kg/m3
10182 kPa | 979.6 ± 1.2 kg/m3
10203 kPa | 979.7 ± 1.2 kg/m3
10219 kPa | 979.8 ± 1.2 kg/m3
10240 kPa | 979.8 ± 1.2 kg/m3
10257 kPa | 979.7 ± 1.2 kg/m3
10473 kPa | 979.9 ± 1.2 kg/m3
10503 kPa | 979.9 ± 1.2 kg/m3
10540 kPa | 980 ± 1.2 kg/m3
10575 kPa | 979.9 ± 1.2 kg/m3
10605 kPa | 980 ± 1.2 kg/m3
10670 kPa | 980 ± 1.2 kg/m3
10704 kPa | 980 ± 1.2 kg/m3
10737 kPa | 980.1 ± 1.2 kg/m3
10764 kPa | 980.1 ± 1.2 kg/m3
10956 kPa | 980.2 ± 1.2 kg/m3
10977 kPa | 980.2 ± 1.2 kg/m3
11001 kPa | 980.3 ± 1.2 kg/m3
11018 kPa | 980.2 ± 1.2 kg/m3
11037 kPa | 980.2 ± 1.2 kg/m3
11056 kPa | 980.3 ± 1.2 kg/m3
11071 kPa | 980.4 ± 1.2 kg/m3
11201 kPa | 980.4 ± 1.2 kg/m3
11204 kPa | 980.4 ± 1.2 kg/m3
11210 kPa | 980.4 ± 1.2 kg/m3
11217 kPa | 980.4 ± 1.2 kg/m3
11228 kPa | 980.4 ± 1.2 kg/m3
11243 kPa | 980.4 ± 1.2 kg/m3
11257 kPa | 980.3 ± 1.2 kg/m3
11280 kPa | 980.5 ± 1.2 kg/m3
11301 kPa | 980.4 ± 1.2 kg/m3
11327 kPa | 980.5 ± 1.2 kg/m3
11349 kPa | 980.5 ± 1.2 kg/m3
11374 kPa | 980.6 ± 1.2 kg/m3
11395 kPa | 980.6 ± 1.2 kg/m3
11421 kPa | 980.6 ± 1.2 kg/m3
11448 kPa | 980.5 ± 1.2 kg/m3
11470 kPa | 980.5 ± 1.2 kg/m3
11496 kPa | 980.6 ± 1.2 kg/m3
11518 kPa | 980.6 ± 1.2 kg/m3
11545 kPa | 980.6 ± 1.2 kg/m3
11572 kPa | 980.5 ± 1.2 kg/m3
11594 kPa | 980.5 ± 1.2 kg/m3
11621 kPa | 980.6 ± 1.2 kg/m3
11849 kPa | 980.8 ± 1.2 kg/m3
11899 kPa | 980.9 ± 1.2 kg/m3
11926 kPa | 980.8 ± 1.2 kg/m3
